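Where inhibition never reached the appropriate level, the endpoint shown equals the highest concentration tested. Otherwise, values were interpolated linearly from a five-concentration, 48-hour dose response in 96-well plates. TGI: total growth inhibition.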
Tests used:
Experiment in all cases: growth of human tumour cells (NCI), 48 h
[1] = test system: CCRF-CEM leukemia
[2] = test system: SNB-75 CNS
[3] = test system: OVCAR-3 ovarian
[4] = test system: SK-MEL-5 melanoma
[5] = test system: COLO 205 colon
[6] = test system: XF 498 CNS
[7] = test system: SN12C renal
[8] = test system: UO-31 renal
[9] = test system: K-562 leukemia
[10] = test system: SW-620 colon
[11] = test system: SK-OV-3 ovarian
[12] = test system: KM20L2 colon
[13] = test system: SF-295 CNS
[14] = test system: MALME-3M melanoma
[15] = test system: M14 melanoma
[16] = test system: HOP-18 NSCLC
[17] = test system: LOX IMVI melanoma
[18] = test system: NCI-H226 lung
[19] = test system: EKVX NSCLC
[20] = test system: HOP-62 NSCLC
[21] = test system: OVCAR-4 ovarian
[22] = test system: HCT-116 colon
[23] = test system: ACHN renal
[24] = test system: KM12 colon
[25] = test system: HT29 colon
[26] = test system: SR leukemia
[27] = test system: SK-MEL-28 melanoma
[28] = test system: NCI-H460 lung
[29] = test system: SF-268 CNS
[30] = test system: A549 NSCLC
[31] = test system: OVCAR-5 ovarian
[32] = test system: U251 CNS
[33] = test system: HCT-15 colon
[34] = test system: M19-MEL melanoma
[35] = test system: MOLT-4 leukemia
[36] = test system: RXF 393 renal
[37] = test system: SK-MEL-2 melanoma
[38] = test system: SNB-19 CNS
[39] = test system: SNB-78 CNS
[40] = test system: NCI-H522 lung
[41] = test system: UACC-257 melanoma
[42] = test system: DMS 114 small cell lung
[43] = test system: NCI-H23 lung
[44] = test system: SF-539 CNS
[45] = test system: IGROV1 ovarian
[46] = test system: DMS 273 small cell lung
[47] = test system: 786-0 renal
[48] = test system: TK-10 renal
[49] = test system: OVCAR-8 ovarian
[50] = test system: HL-60(TB) leukemia
[51] = test system: LXFL 529 NSCLC
[52] = test system: HCC-2998 colon
[53] = test system: A498 renal
[54] = test system: CAKI-1 renal
[55] = test system: HOP-92 NSCLC
[56] = test system: UACC-62 melanoma
[57] = test system: RPMI-8226 leukemia
[58] = test system: DLD-1 colon

[N-]=[N+]=CC(=O)C1(C(=O)C=[N+]=[N-])CC1
TGI [1]: > 100 µM
TGI [2]: > 100 µM
TGI [3]: > 100 µM
TGI [4]: > 100 µM
TGI [5]: > 100 µM
TGI [6]: > 100 µM
TGI [7]: > 100 µM
TGI [8]: > 100 µM
TGI [9]: > 100 µM
TGI [10]: > 100 µM
TGI [11]: > 100 µM
TGI [12]: > 100 µM
TGI [13]: > 100 µM
TGI [14]: > 100 µM
TGI [15]: > 100 µM
TGI [16]: > 100 µM
TGI [17]: > 100 µM
TGI [18]: > 100 µM
TGI [19]: > 100 µM
TGI [20]: > 100 µM
TGI [21]: > 100 µM
TGI [22]: > 100 µM
TGI [23]: > 100 µM
TGI [24]: > 100 µM
TGI [25]: > 100 µM
TGI [26]: > 100 µM
TGI [27]: > 100 µM
TGI [28]: > 100 µM
TGI [29]: > 100 µM
TGI [30]: > 100 µM
TGI [31]: > 100 µM
TGI [32]: > 100 µM
TGI [33]: > 100 µM
TGI [34]: > 100 µM
TGI [35]: > 100 µM
TGI [36]: > 100 µM
TGI [37]: > 100 µM
TGI [38]: > 100 µM
TGI [39]: > 100 µM
TGI [40]: > 100 µM
TGI [41]: > 100 µM
TGI [42]: > 100 µM
TGI [43]: > 100 µM
TGI [44]: > 100 µM
TGI [45]: > 100 µM
TGI [46]: > 100 µM
TGI [47]: > 100 µM
TGI [48]: > 100 µM
TGI [49]: > 100 µM
TGI [50]: > 100 µM
TGI [51]: > 100 µM
TGI [52]: > 100 µM
TGI [53]: > 100 µM

C/C(=N\Nc1ccccc1)c1sc(-c2nc(C)c(/C(C)=N/Nc3ccccc3)s2)nc1C
TGI [1]: > 100 µM
TGI [2]: > 77.1 µM
TGI [3]: 59.9 µM
TGI [4]: > 47.6 µM
TGI [5]: 25.6 µM
TGI [6]: > 100 µM
TGI [7]: > 100 µM
TGI [8]: > 60.7 µM
TGI [9]: 69.9 µM
TGI [10]: > 35.2 µM
TGI [11]: > 100 µM
TGI [13]: > 34.9 µM
TGI [14]: 51 µM
TGI [15]: 25 µM
TGI [16]: > 96.6 µM
TGI [54]: > 89.4 µM
TGI [17]: > 100 µM
TGI [18]: > 95.7 µM
TGI [19]: > 100 µM
TGI [21]: > 100 µM
TGI [22]: > 100 µM
TGI [55]: > 57.6 µM
TGI [23]: > 32 µM
TGI [24]: > 100 µM
TGI [25]: 26.2 µM
TGI [26]: > 100 µM
TGI [27]: > 85.8 µM
TGI [28]: > 100 µM
TGI [29]: > 64.6 µM
TGI [30]: > 35.8 µM
TGI [31]: > 100 µM
TGI [32]: > 100 µM
TGI [33]: > 20.2 µM
TGI [34]: > 85.2 µM
TGI [35]: > 100 µM
TGI [36]: > 87.9 µM
TGI [56]: 13.6 µM
TGI [37]: > 100 µM
TGI [38]: > 100 µM
TGI [39]: > 100 µM
TGI [57]: > 100 µM
TGI [40]: 48.3 µM
TGI [41]: > 70.4 µM
TGI [42]: > 30.8 µM
TGI [43]: > 100 µM
TGI [44]: > 37.7 µM
TGI [45]: > 60.9 µM
TGI [46]: > 21.1 µM
TGI [47]: > 83.1 µM
TGI [48]: > 100 µM
TGI [49]: > 100 µM
TGI [50]: > 100 µM
TGI [58]: > 100 µM
TGI [51]: > 82 µM
TGI [52]: 19.9 µM
TGI [53]: > 100 µM

From PubChem BioAssay (NCI)
